ChEMBL document CHEMBL3739297, “Cross metathesis with hydroxamate and benzamide BOC-protected alkenes to access HDAC inhibitors and their biological evaluation highlighted intrinsic activity of BOC-protected dihydroxamates” (Bioorg Med Chem Lett, 2016)
pEC50, pIC50: −log10 of the molar value. The source made the active and inactive calls. The calls are words filed in the database; no cut-off is given here.

How the values were obtained:
MCF7 = test: Antiproliferative activity against human MCF7 cells assessed as cell proliferation after 72 hrs by MTT assay; type: functional; set-up: concentration or dose not given beside the values
HepG2 = test: Antiproliferative activity against human HepG2 cells assessed as cell proliferation after 72 hrs by MTT assay; type: functional; set-up: concentration or dose not given beside the values
[1] = target: T1, Histone deacetylase (Homo sapiens) (UniProt Q13547+O15379+Q9UBN7+Q92769+Q9UQL6+Q8WUI4+Q9BY41+Q96DB2+P56524+Q9UKV0+Q969S8); test: Inhibition of HDAC in human MeT-5A cells assessed as hisone H3 acetylation after 16 hrs by BRET assay; type: cell-based
[2] = Cytotoxicity against human MeT-5A cells; type: cell-based
[3] = target: T1, Histone deacetylase (Homo sapiens); test: Inhibition of HDAC in human MeT-5A cells assessed as hisone H3 acetylation at 100 uM after 16 hrs by BRET assay; type: cell-based
Histone deacetylase 1 = Histone deacetylase 1 (Homo sapiens, UniProt Q13547); test: Inhibition of HDAC1 (unknown origin) by fluorimetric assay
Histone deacetylase 2 = Histone deacetylase 2 (Homo sapiens, UniProt Q92769); test: Inhibition of HDAC2 (unknown origin) by fluorimetric assay
Histone deacetylase 3 = Histone deacetylase 3 (Homo sapiens, UniProt O15379); test: Inhibition of HDAC3 (unknown origin) by fluorimetric assay
[4] = target: T2, Protein deacetylase HDAC6 (Homo sapiens, UniProt Q9UBN7); test: Inhibition of HDAC6 (unknown origin) by fluorimetric assay
T2 sequence (Q9UBN7 whole entry): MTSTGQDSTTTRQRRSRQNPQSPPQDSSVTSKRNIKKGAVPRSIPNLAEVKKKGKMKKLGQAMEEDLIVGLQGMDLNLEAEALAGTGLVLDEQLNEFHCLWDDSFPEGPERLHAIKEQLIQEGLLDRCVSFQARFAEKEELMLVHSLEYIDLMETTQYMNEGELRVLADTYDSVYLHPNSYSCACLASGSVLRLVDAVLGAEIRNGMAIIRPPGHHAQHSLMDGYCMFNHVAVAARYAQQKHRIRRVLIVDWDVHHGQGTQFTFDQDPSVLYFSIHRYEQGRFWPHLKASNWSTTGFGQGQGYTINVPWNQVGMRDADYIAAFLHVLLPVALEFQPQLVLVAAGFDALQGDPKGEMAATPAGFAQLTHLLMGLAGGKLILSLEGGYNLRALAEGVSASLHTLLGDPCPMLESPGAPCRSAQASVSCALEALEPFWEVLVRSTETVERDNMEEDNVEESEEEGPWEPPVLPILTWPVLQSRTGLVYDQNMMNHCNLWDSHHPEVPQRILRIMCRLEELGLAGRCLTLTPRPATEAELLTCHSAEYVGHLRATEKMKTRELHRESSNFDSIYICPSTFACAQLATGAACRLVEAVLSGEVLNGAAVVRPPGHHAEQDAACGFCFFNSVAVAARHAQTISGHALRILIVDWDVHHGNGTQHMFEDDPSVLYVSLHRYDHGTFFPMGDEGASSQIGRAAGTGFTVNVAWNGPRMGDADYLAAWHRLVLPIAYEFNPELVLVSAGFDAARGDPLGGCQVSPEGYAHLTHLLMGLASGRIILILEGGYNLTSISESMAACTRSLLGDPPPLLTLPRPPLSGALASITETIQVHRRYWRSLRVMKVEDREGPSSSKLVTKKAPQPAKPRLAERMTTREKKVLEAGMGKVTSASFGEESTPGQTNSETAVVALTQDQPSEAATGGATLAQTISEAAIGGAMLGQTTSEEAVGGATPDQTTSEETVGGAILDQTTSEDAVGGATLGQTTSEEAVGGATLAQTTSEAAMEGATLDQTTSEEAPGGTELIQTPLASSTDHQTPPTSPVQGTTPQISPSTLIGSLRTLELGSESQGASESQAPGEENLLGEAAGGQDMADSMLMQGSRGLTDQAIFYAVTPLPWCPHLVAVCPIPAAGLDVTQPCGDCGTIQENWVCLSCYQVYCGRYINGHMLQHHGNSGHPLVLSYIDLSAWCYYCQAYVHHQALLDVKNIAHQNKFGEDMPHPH

Homo sapiens [5] = species: Homo sapiens; test: Selectivity index, ratio of IC50 for HDAC1 (unknown origin) to IC50 for HDAC6 (unknown origin)
Homo sapiens [6] = species: Homo sapiens; test: Selectivity index, ratio of IC50 for HDAC2 (unknown origin) to IC50 for HDAC6 (unknown origin)
[7] = target: T2, Protein deacetylase HDAC6; test: Inhibition of HDAC6 in human HeLa cells assessed as inhibition of tubulin deacetylation incubated for overnight by cELISA; type: cell-based
[8] = target: T1, Histone deacetylase (Homo sapiens); conditions: HeLa, at 12.5 µM
Description: Inhibition of human HDAC in HeLa cells nuclear extract at 12.5 uM by fluorimetric assay

Sequence of Histone deacetylase 3 (O15379 whole entry): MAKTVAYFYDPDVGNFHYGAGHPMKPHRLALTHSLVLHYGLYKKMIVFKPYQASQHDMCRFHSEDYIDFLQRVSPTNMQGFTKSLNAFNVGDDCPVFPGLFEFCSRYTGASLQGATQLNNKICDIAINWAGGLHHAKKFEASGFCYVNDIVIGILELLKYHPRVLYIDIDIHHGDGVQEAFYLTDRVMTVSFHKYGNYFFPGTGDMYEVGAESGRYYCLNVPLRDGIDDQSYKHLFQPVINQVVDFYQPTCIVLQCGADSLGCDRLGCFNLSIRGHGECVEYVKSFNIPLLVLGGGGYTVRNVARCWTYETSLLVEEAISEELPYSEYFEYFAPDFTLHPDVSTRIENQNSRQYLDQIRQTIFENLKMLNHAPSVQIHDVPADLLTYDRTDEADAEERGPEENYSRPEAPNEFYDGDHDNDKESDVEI
Sequence of Histone deacetylase 1 (Q13547 whole entry): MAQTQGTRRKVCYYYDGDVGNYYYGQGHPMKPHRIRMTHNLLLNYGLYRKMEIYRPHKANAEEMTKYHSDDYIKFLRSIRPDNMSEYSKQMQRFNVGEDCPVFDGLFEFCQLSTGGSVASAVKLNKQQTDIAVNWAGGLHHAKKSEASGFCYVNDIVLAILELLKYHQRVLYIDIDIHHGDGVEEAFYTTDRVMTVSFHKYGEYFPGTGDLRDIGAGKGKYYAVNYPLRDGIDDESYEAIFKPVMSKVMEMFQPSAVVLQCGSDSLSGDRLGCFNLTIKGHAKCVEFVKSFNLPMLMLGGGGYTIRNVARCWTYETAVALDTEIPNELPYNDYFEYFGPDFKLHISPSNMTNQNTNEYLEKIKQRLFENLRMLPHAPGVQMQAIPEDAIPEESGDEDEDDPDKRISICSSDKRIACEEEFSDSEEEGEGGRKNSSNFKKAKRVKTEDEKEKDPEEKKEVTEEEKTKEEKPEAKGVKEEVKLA
Sequence of Histone deacetylase 2 (Q92769 whole entry): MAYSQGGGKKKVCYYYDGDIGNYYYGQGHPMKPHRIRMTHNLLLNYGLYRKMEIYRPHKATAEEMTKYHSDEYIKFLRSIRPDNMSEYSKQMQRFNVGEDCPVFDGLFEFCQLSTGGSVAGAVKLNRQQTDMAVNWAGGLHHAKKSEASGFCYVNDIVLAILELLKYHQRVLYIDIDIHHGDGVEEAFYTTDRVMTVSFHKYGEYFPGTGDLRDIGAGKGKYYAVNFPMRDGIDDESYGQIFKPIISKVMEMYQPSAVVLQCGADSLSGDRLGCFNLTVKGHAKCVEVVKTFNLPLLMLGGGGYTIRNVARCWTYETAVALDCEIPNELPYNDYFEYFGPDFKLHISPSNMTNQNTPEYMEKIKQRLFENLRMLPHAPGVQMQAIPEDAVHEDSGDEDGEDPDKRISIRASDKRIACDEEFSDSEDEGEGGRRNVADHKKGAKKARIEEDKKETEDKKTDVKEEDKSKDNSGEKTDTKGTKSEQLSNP

C=CCCC(=O)N(OC(=O)OC(C)(C)C)C(=O)OC(C)(C)C showed a Cell proliferation (MCF7) of 94% and a Cell proliferation (HepG2) of 110%.
For Nc1ccccc1NC(=O)CCCCCCC(=O)Nc1ccccc1N, the inhibition [1] was “Active”, the Activity [2] was “Non-toxic” and the Cell proliferation (MCF7) was 92%. For the same molecule, the Cell proliferation (HepG2) was 114%.
For CC(C)(C)OC(=O)Nc1ccccc1NC(=O)CCCCCCC(=O)Nc1ccccc1NC(=O)OC(C)(C)C, the inhibition [1] was “inactive”, the Cell proliferation (MCF7) was 87% and the Cell proliferation (HepG2) was 136%.
With CC(C)(C)OC(=O)ON(C(=O)CCCCCCC(=O)N(OC(=O)OC(C)(C)C)C(=O)OC(C)(C)C)C(=O)OC(C)(C)C the Activity [3] was 17 mU, the inhibition [1] was “Active” and the Activity [2] was “Non-toxic”. For the same molecule, the pIC50 (Histone deacetylase 1) was 4.51, the pIC50 (Histone deacetylase 2) was 4.53 and the pIC50 (Histone deacetylase 3) was < 4.00. It also gave a pIC50 [4] of 5.47, a Ratio IC50 (Homo sapiens [5]) of 10 and a Ratio IC50 (Homo sapiens [6]) of 10. The pEC50 [7] was 5.30, the Cell proliferation (MCF7) was 92% and the Cell proliferation (HepG2) was 108%. The inhibition [8] was 60%.
For CC(=O)Nc1ccc(C(=O)Nc2ccccc2N)cc1 [TACEDINALINE], the Activity [2] was “Non-toxic” and the inhibition [8] was 42%.
For CC(C)(C)OC(=O)Nc1ccccc1NC(=O)CC/C=C/CCC(=O)Nc1ccccc1NC(=O)OC(C)(C)C, the inhibition [1] was “inactive”.
With O=C(CCCCCCC(=O)Nc1ccccc1)NO [VORINOSTAT] the Activity [2] was “Non-toxic”.
With C=CCCC(=O)Nc1ccccc1NC(=O)OC(C)(C)C the Cell proliferation (MCF7) was 50% and the Cell proliferation (HepG2) was 142%.
With CC(C)(C)OC(=O)ON(C(=O)CC/C=C/CCC(=O)N(OC(=O)OC(C)(C)C)C(=O)OC(C)(C)C)C(=O)OC(C)(C)C the inhibition [1] was “inactive”, the Activity [2] was “Non-toxic” and the pEC50 [7] was 4.75. The Cell proliferation (MCF7) was 100% and the Cell proliferation (HepG2) was 138%.
With O=C(CCCCCCC(=O)NO)NO [SUBEROHYDROXAMIC ACID] the Activity [2] was “Non-toxic”, the pIC50 (Histone deacetylase 3) was 4.20 and the pIC50 [4] was 5.69. For the same molecule, the pEC50 [7] was 5.96, the Cell proliferation (MCF7) was 93% and the Cell proliferation (HepG2) was 107%.
